As usually defined, the IC50 is the point on the concentration scale where inhibition reaches its midpoint.

Each structure is given as a SMILES string.

The target in the experiment is Recombinant full length human PFKFB3 (Homo sapiens, UniProt Q16875). Kind of experiment: PFKFB3 kinase activity assay (ADP production, ADP-Glo). Background: In ADP-Glo the light output rises with the ADP produced.
Chain of Recombinant full length human PFKFB3 (Q16875 whole entry): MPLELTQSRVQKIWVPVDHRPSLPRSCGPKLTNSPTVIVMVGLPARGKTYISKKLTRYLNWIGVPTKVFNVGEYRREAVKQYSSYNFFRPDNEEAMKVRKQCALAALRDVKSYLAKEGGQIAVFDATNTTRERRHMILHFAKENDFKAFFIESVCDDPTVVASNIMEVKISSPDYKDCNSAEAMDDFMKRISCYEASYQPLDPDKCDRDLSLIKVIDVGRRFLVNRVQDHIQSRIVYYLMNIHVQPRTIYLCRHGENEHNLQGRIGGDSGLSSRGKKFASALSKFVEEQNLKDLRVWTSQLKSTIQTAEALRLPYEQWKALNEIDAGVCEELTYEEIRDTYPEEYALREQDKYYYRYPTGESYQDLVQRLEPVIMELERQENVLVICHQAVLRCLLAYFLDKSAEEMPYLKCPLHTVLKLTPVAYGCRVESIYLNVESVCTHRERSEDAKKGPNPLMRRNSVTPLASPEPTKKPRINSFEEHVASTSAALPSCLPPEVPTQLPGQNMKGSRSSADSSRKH
`O=C1c2ccc(-c3c[nH]nn3)cc2C(=O)N1c1cc(-c2ccc(F)cc2)c(-c2ccccc2)cn1` [compound 146, 2-(4-(4-fluorophenyl)-5-phenylpyridin-2-yl)-5-(1H-1,2,3-triazol-4-yl)isoindoline-1,3-dione]: the IC50 is under 20 µM.
Turning to `O=C(OCCN1CCCC1)c1ccc(-c2ccccc2)cc1N1C(=O)c2ccc(-c3c[nH]nn3)cc2C1=O` [Compound 68, 3-[1,3-Dioxo-5-(1H-[1,2,3]triazol-4-yl)-1,3-dihydroisoindol-2-yl]biphenyl-4-carboxylic acid 2-pyrrolidin-1-yl-ethyl ester], the IC50 is 2 to 5 µM.
To `O=C(O)c1ccc(-c2cccs2)cc1N1C(=O)c2ccc(-c3c[nH]nn3)cc2C1=O` [Example 56] belongs 2 to 5 µM.
As for `CN(C)C(=O)c1cc(O)c(C(=O)N=S(C)(C)=O)cc1C(=O)Nc1cc(-c2ccc(Cl)cc2Cl)ccc1C(=O)O` [Example 42, 2′,4′-dichloro-3-(5-((dimethyl(oxo)-λ^6-sulfanylidene)carbamoyl)-2-(dimethylcarbamoyl)-4-hydroxybenzamido)-[1,1′-biphenyl]-4-carboxylic acid], the IC50 was 2 to 5 µM.
As for `COc1ccc(-c2c(C)sc(N3C(=O)c4ccc(C(=O)NS(C)(=O)=O)cc4C3=O)c2C#N)cc1` [Example 14], the figure is 0.5 to 2 µM.
As for `CC1(C)CCC(c2ccc(C(=O)O)c(NC(=O)c3cc(O)c(C(=O)O)cc3C(=O)O)c2)CC1` [Example 52, 4-{[2-carboxy-5-(4,4-dimethylcyclohexyl)phenyl]carbamoyl}-6-hydroxybenzene-1,3-dicarboxylic acid], the IC50 is under 0.5 µM.
As for `O=C(O)c1cc(-c2ccccc2)ccc1N1C(=O)c2ccc(-c3cn(Cc4ccccc4)nn3)cc2C1=O` [Example 29], the figure is 2 to 5 µM.
As for `O=C(O)c1ccc(-c2ccc(F)c(F)c2)cc1N1Cc2ccc(-c3nn[nH]c3CO)cc2C1=O` [compound 161, 3′,4′-difluoro-3-(6-(5-(hydroxymethyl)-1H-1,2,3-triazol-4-yl)-1-oxoisoindolin-2-yl)biphenyl-4-carboxylic acid], the figure is 5 to 20 µM.
As for `CC(C)[C@H](N)C(=O)OCCOC(=O)c1ccc(-c2ccccc2)cc1N1C(=O)c2ccc(-c3c[nH]nn3)cc2C1=O` [Compound 74, 3-[1,3-Dioxo-5-(1H-[1,2,3]triazol-4-yl)-1,3-dihydroisoindol-2-yl]biphenyl-4-carboxylic acid 2-{[(2S)-2-amino-3-methylbutanoyl]oxy}ethyl ester], the IC50 is under 20 µM.
With `Cc1ccc(S(=O)(=O)Nc2ccc3c(c2)C(=O)N(c2cc(-c4ccc(F)c(F)c4)ccc2C(=O)O)C3)cc1` [Compound 132, 3′,4′-Difluoro-3-[1-oxo-6-(toluene-4-sulfonylamino)-1,3-dihydro-isoindol-2-yl]-biphenyl-4-carboxylic acid], the IC50 was 5 to 20 µM.
To `COC(=O)c1cc(-c2ccccc2)ccc1N1C(=O)c2ccc(C(=O)NS(=O)(=O)c3ccccc3)cc2C1=O` [compound 152, methyl 4-(1,3-dioxo-5-(phenylsulfonylcarbamoyl)isoindolin-2-yl)biphenyl-3-carboxylate] belongs under 20 µM; to `O=C(O)c1cc(-c2cnccn2)ccc1N1C(=O)c2ccc(-c3c[nH]nn3)cc2C1=O` [Example 63], 5 to 20 µM.
As for `Cc1cnc(N2C(=O)c3ccc(-c4c[nH]nn4)cc3C2=O)cc1-c1ccc(F)cc1F` [Compound 90, 2-[4-(2,4-Difluoro-phenyl)-5-methyl-pyridin-2-yl]-5-(1H-[1,2,3]triazol-4-yl)-isoindole-1,3-dione], the figure is 2 to 5 µM.
For the compound `N#Cc1c(N2C(=O)c3ccc(C(=O)O)cc3C2=O)sc(-c2ccccc2)c1-c1ccccc1` [Compound 133, 2-(3-Cyano-4,5-diphenylthiophen-2-yl)-1,3-dioxo-2,3-dihydro-1H-isoindole-5-carboxylic acid], the IC50 is under 0.5 µM.
On to `CC(C)(C)C(=O)OCn1cc(-c2ccc3c(c2)C(=O)N(c2ccc(-c4ccccc4)cc2C(=O)O)C3=O)nn1` [Example 30], for which the IC50 fell in the range of 2 to 5 µM.
To `CCOC(=O)c1ccc(-c2ccc(Cl)cc2Cl)cc1NC(=O)c1cc(O)c(C(=O)O)cc1C(=O)O` [Example 55, 4-{[2′,4′-dichloro-4-(ethoxycarbonyl)-[1,1′-biphenyl]-3-yl]carbamoyl}-6-hydroxybenzene-1,3-dicarboxylic acid] belongs under 0.5 µM.
In the case of `NC(=O)c1ccc2c(c1)C(=O)N(c1cc(-c3ccc(F)c(F)c3)ccc1C(=O)O)C2` [compound 160, 3-(6-carbamoyl-1-oxoisoindolin-2-yl)-3′,4′-difluorobiphenyl-4-carboxylic acid], the IC50 lay within 5 to 20 µM.
As to `O=C(O)c1ccc2c(c1)C(=O)N(c1cc(-c3ccc(F)cc3F)ccc1C(=O)O)C2=O` [Example 53], the IC50 is under 0.5 µM.
With `COc1ccc(-c2c(C)sc(N3C(=O)c4ccc(C(=O)N[C@@H](Cc5ccccc5)C(=O)O)cc4C3=O)c2C#N)cc1` [Compound 137, (2S)-2-({2-[3-Cyano-4-(4-methoxyphenyl)-5-methyl-thiophen-2-yl]-1,3-dioxo-2,3-dihydro-1H-isoindole-5-carbonyl}-amino)-3-phenylpropanoic acid], the IC50 lay within 0.5 to 2 µM.
To `CN(C)CCOC(=O)c1ccc(-c2ccc(F)c(F)c2)cc1N1Cc2ccc(C(=O)NS(C)(=O)=O)cc2C1=O` [Compound 108, 3′,4′-Difluoro-3-(6-methanesulfonylaminocarbonyl-1-oxo-1,3-dihydroisoindol-2-yl)biphenyl-4-carboxylic acid 2-dimethylamino-ethyl ester] belongs under 20 µM.
As for `CCCCS(=O)(=O)NC(=O)c1ccc2c(c1)C(=O)N(c1ccc(-c3ccccc3)cc1C(=O)O)C2=O` [Example 24, 4-[5-(Butane-1-sulfonylaminocarbonyl)-1,3-dioxo-1,3-dihydroisoindol-2-yl]biphenyl-3-carboxylic Acid], the figure is 2 to 5 µM; as for `O=C(O)c1ccc(NC(=O)c2cccc(-c3ccccc3)c2)c(C(=O)O)c1` [Example 17, 4-{[1,1′-biphenyl]-3-amido}benzene-1,3-dicarboxylic acid], 0.5 to 2 µM.
To `O=C1c2ccc(-c3c[nH]nn3)cc2C(=O)N1c1ccc(-c2ccccc2)cn1` [Compound 86, 2-(5-Phenylpyridin-2-yl)-5-(1H-[1,2,3]triazol-4-yl)-isoindole-1,3-dione] belongs under 20 µM.
With `O=C(O)c1ccc(C(=O)O)c(C(=O)Nc2ncc([N+](=O)[O-])s2)c1` [Example 39, 2-[(5-nitro-1,3-thiazol-2-yl)carbamoyl]benzene-1,4-dicarboxylic acid], the IC50 was 0.5 to 2 µM.
For `CC(C)OC(=O)c1ccc(-c2ccc(F)c(F)c2)cc1N1Cc2ccc(-c3c[nH]nn3)cc2C1=O` [Compound 118, 3′,4′-Difluoro-3-[1-oxo-6-(1H-[1,2,3]triazol-4-yl)-1,3-dihydro-isoindol-2-yl]-biphenyl-4-carboxylic acid isopropyl ester], the IC50 is under 20 µM.
To `COc1ccc(-c2c(C)sc(N3C(=O)c4ccc(C(=O)N[C@@H](Cc5c[nH]c6ccccc56)C(=O)O)cc4C3=O)c2C#N)cc1` [Example 17] belongs 0.5 to 2 µM.
As for `O=C(OCCN1CCCC1)c1ccc(-c2ccc(F)c(F)c2)cc1N1Cc2ccc(-c3c[nH]nn3)cc2C1=O` [Compound 115, 3′,4′-Difluoro-3-[1-oxo-6-(1H-[1,2,3]triazol-4-yl)-1,3-dihydroisoindol-2-yl]biphenyl-4-carboxylic acid 2-pyrrolidin-1-yl-ethyl ester], the figure is under 20 µM; as for `Nc1cc(C(=O)O)ccc1C(=O)Nc1cc(-c2ccccc2)ccc1C(=O)O` [Example 4, 3-(2-amino-4-carboxybenzamido)-[1,1′-biphenyl]-4-carboxylic acid], under 20 µM.
To `COC(=O)c1cc(-c2ccccc2)ccc1N1C(=O)c2ccc(C(=O)NS(C)(=O)=O)cc2C1=O` [Example 40] belongs under 20 µM; to `COC(=O)c1ccc2c(c1)C(=O)N(c1cc(-c3ccc(F)c(F)c3)ccc1C(=O)OC)C2` [Compound 127, 2-(3′,4′-Difluoro-4-methoxycarbonylbiphenyl-3-yl)-3-oxo-2,3-dihydro-1H-isoindole-5-carboxylic acid methyl ester], under 20 µM.
With `O=C(NS(=O)(=O)c1ccccc1)c1ccc2c(c1)C(=O)N(c1ccc(-c3ccccc3)cc1-c1nnn[nH]1)C2=O` [Compound 135, N-(Benzenesulfonyl)-2-(3-(1H-tetrazol-5-yl)-[1,1′-biphenyl]-4-yl)-1,3-dioxo-2,3-dihydro-1H-isoindole-5-carboxamide], the IC50 lay within 5 to 20 µM.
`O=C(O)c1ccc(-c2ccccc2)cc1N1Cc2ccc(-c3c[nH]nn3)cc2C1=O` [Compound 92, 3-[1-Oxo-6-(1H-[1,2,3]triazol-4-yl)-1,3-dihydroisoindol-2-yl]biphenyl-4-carboxylic Acid]: the IC50 is 2 to 5 µM.
Turning to `COC(=O)c1cc(-c2ccccc2)c(OC)cc1N1C(=O)c2ccc(C(=O)O)cc2C1=O` [Example 42], the IC50 was 0.5 to 2 µM.
As for `O=C(O)c1ccc2c(c1)C(=O)N(c1cc(-c3ccc(Cl)cc3Cl)ccc1C(=O)O)C2=O` [Compound 142, 2-(4-Carboxy-2′,4′-dichloro[1,1′-biphenyl]-3-yl)-1,3-dioxo-2,3-dihydro-1H-isoindole-5-carboxylic acid], the concentration for half-maximal inhibition (IC50) is under 0.5 µM.
As for `O=C(O)c1ccc2c(c1)C(=O)N(c1cc(-c3ccc(F)c(F)c3)ccc1C(=O)O)C2` [Compound 126, 2-(4-Carboxy-3′,4′-difluoro-biphenyl-3-yl)-3-oxo-2,3-dihydro-1H-isoindole-5-carboxylic acid], the IC50 was under 20 µM.
As for `CC(COC(=O)c1ccc(-c2ccc(Cl)cc2Cl)cc1NC(=O)c1cc(O)c(C(=O)O)cc1C(=O)O)N(C)C` (stereo not shown) [Example 66, 4-[(2′,4′-dichloro-4-{[2-(dimethylamino)propoxy]carbonyl}-[1,1′-biphenyl]-3-yl)carbamoyl]-6-hydroxybenzene-1,3-dicarboxylic acid], the figure is under 0.5 µM.
To `CN(C)CCCOC(=O)c1ccc(-c2ccc(Cl)cc2Cl)cc1NC(=O)c1cc(C(=O)O)c(O)cc1C(=O)O` [Example 54, 2-[(2′,4′-dichloro-4-{[3-(dimethylamino)propoxy]carbonyl}-[1,1′-biphenyl]-3-yl)carbamoyl]-5-hydroxybenzene-1,4-dicarboxylic acid] belongs under 0.5 µM.

The values are drawn from patent US20230047816A1 (priority 2018, published 2023).
